Earlier results as cited in publication doi:10.1101/2025.05.13.653654v1, “PEPlife2: A Updated Repository of the Half-life of Peptides” (bioRxiv, 2025).

Excerpt: Our database includes various chemical modifications aimed at enhancing the stability of peptides or proteins, such as PEGylation, Fc-conjugation, amino acid replacements (e.g., Lys substitutions followed by fatty acid conjugation), D-amino acid substitutions, non-natural amino acid substitutions (e.g., Aib, Sar, pGlu), cyclization, amidation, acetylation, and others.

Substance | Half life [h] | half-life (approximate values, effect of N-terminal acetylation and C-terminal amidation, matrix not given, curated database entry, ref not given)
CMPRLRGC [VH434] | 1.16 | 
DRVYIHP [Ang(1-7)] |  | approximately 9 minutes
cMPRLRGC [VH445] | 3.03 | 
